Reference: patent publication US20170260185A1 (priority 2014, published 2017)
pIC50: −log10 of the molar value. Where two headings read alike, the source gives them in different places.

Columns and labels:
[1] = target: human ERG potassium channel (hERG) (Homo sapiens, UniProt Q12809); experiment: cell-based
Method: Measure of the Effect on hERG Channel by Tail Current Recording Using In Vitro Rapid ICE™
The potency of the compounds of the invention in inhibiting human ERG potassium channel (hERG) tail current is assessed in a recombinant HEK293 cell line stably transfected with hERG cDNA using Rapid ICE™ (Rapid Ion Channel Electrophysiology) assay. Rapid ICE™ is an automated patch-clamp assay utilizing the PatchXpress 7000A system (Molecular Devices Corporation) or the QPatch HTX system (Sophion Bioscience A/S).
Briefly cells are cultivated for 24 to 72 hours before recordings in minimum essential medium supplemented with 10% FBS, 1% non-essential amino acids, 1% sodium pyruvate, 2 mM L-glutamine. The day of the experiment cells are detached with TrypLE and prepared to be loaded on the instrument. For PatchXpress cells are finally resuspended in 150 μl of Extracellular Buffer whereas for QPatch cells are resuspended in 7 ml Serum-Free Media containing 25 mM Hepes and Soybean trypsin inhibitor and immediately placed in the cell storage tank of the machine. The composition of the Extracellular Buffer is (mM): NaCl 137; KCl 4; CaCl2 1.8; MgCl2 1.0; D-glucose 10; N 2 hydroxyethylpiperazine-N′-2-ethanesulfonic acid (HEPES) 10; pH 7.4 with 1 M NaOH. The composition of the pipette solution is (mM): KCl 130; MgCl2 1.0; Ethylene glycol-bis(R-aminoethyl ether)-N,N,N′,N′-tetraacetic acid (EGTA) 5; MgATP 5; HEPES 10; pH 7.2 with 1 M KOH. The voltage protocol includes the following steps: step from −80 mV to −50 mV for 200 ms, +20 mV for 4.8 s, step to −50 mV for 5 s then step to the holding potential of −80 mV. Compounds of the invention are dissolved in DMSO and diluted in Extracellular Buffer to achieve final test concentrations (0.1, 1 and 10 μM) in 0.1% DMSO. The voltage protocol is run and recorded continuously during the experiment. The vehicle, corresponding to 0.1% DMSO in Extracellular Buffer, is then applied for 3 min followed by the test substance in triplicate. The standard combined exposure time is 5 min. The average of tail current amplitude values recorded from 4 sequential voltage pulses is used to calculate for each cell the effect of the test substance by calculating the residual current (% control) compared with vehicle pre-treatment. Data are reported as % inhibition for each concentration tested and IC50 values are estimated using DataXpress or QPatch software. At least two cells are tested, more if results diverge.

[2] = target: T1, human dopamine transporter (DAT) (Homo sapiens, UniProt Q01959); experiment: Scintillation Proximity Assay (SPA) competition binding, [3H]WIN-35,428, hDAT-CHO membranes; conditions: for pIC50: pIC50 DAT; for IC50: read-out: pIC50 DAT (converted)
T1 construct: expressed in transfected cells; host or cells: CHO (hDAT-CHO), membrane preparation

[3] = target: T2, human norepinephrine transporter (NET) (Homo sapiens, UniProt P23975); experiment: Scintillation Proximity Assay (SPA) competition binding, [3H]nisoxetine, hNET-CHO membranes
T2 construct: expressed in transfected cells; host or cells: CHO (hNET-CHO), membrane preparation

[4] = target: T3, human serotonin transporter (SERT) (Homo sapiens, UniProt P31645); experiment: Scintillation Proximity Assay (SPA) competition binding, [3H]citalopram, hSERT-CHO membranes
T3 construct: expressed in transfected cells; host or cells: CHO (hSERT-CHO), membrane preparation
T3 sequence (P31645 whole entry): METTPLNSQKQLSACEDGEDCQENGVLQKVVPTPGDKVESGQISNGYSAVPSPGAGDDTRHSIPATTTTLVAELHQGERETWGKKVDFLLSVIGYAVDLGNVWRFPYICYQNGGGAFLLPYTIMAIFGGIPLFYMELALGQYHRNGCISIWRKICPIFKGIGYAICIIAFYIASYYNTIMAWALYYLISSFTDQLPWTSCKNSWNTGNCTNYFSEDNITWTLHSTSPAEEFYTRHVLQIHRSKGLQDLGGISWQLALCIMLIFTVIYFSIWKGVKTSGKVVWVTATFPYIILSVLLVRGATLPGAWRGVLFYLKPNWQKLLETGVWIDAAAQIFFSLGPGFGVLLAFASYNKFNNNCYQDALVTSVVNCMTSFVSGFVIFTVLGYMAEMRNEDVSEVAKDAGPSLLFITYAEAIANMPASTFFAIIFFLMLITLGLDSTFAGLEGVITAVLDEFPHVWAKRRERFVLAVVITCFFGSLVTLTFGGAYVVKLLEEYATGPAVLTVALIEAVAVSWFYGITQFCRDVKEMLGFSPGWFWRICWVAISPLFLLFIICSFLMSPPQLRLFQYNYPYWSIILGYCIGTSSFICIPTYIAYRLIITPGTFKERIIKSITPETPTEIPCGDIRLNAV

T1 sequence (Q01959 whole entry): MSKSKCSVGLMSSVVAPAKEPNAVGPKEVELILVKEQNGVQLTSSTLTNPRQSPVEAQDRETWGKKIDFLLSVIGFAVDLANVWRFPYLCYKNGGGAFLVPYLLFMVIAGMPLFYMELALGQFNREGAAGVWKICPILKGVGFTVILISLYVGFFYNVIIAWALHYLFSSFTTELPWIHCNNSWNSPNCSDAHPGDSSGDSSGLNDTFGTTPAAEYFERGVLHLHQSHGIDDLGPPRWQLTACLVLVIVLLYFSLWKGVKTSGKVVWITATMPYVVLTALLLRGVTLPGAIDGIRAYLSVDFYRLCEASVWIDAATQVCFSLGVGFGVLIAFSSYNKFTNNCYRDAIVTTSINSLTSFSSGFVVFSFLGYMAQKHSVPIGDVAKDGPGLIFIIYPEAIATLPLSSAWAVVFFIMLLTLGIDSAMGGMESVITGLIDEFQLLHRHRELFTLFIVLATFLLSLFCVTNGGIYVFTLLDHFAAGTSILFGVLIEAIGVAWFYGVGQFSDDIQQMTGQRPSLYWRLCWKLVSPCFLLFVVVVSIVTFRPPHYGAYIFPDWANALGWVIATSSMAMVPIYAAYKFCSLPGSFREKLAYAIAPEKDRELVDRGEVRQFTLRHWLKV
T2 sequence (P23975 whole entry): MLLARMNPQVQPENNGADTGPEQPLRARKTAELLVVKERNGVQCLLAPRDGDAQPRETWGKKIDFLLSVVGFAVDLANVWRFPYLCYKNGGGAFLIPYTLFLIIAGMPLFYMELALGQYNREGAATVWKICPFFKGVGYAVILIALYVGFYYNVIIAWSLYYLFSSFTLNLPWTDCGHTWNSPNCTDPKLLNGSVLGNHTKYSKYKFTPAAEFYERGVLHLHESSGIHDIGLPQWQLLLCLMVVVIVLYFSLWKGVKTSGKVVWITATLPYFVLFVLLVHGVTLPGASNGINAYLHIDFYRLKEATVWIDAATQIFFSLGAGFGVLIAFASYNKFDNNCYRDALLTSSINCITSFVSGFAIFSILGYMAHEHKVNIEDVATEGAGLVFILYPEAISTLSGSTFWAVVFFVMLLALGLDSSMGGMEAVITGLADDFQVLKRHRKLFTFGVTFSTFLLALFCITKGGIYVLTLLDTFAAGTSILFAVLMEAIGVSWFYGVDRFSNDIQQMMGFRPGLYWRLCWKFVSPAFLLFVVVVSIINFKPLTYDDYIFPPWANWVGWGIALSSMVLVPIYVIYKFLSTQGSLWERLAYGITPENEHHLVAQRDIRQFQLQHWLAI
Chain of human ERG potassium channel (hERG) (Q12809 whole entry): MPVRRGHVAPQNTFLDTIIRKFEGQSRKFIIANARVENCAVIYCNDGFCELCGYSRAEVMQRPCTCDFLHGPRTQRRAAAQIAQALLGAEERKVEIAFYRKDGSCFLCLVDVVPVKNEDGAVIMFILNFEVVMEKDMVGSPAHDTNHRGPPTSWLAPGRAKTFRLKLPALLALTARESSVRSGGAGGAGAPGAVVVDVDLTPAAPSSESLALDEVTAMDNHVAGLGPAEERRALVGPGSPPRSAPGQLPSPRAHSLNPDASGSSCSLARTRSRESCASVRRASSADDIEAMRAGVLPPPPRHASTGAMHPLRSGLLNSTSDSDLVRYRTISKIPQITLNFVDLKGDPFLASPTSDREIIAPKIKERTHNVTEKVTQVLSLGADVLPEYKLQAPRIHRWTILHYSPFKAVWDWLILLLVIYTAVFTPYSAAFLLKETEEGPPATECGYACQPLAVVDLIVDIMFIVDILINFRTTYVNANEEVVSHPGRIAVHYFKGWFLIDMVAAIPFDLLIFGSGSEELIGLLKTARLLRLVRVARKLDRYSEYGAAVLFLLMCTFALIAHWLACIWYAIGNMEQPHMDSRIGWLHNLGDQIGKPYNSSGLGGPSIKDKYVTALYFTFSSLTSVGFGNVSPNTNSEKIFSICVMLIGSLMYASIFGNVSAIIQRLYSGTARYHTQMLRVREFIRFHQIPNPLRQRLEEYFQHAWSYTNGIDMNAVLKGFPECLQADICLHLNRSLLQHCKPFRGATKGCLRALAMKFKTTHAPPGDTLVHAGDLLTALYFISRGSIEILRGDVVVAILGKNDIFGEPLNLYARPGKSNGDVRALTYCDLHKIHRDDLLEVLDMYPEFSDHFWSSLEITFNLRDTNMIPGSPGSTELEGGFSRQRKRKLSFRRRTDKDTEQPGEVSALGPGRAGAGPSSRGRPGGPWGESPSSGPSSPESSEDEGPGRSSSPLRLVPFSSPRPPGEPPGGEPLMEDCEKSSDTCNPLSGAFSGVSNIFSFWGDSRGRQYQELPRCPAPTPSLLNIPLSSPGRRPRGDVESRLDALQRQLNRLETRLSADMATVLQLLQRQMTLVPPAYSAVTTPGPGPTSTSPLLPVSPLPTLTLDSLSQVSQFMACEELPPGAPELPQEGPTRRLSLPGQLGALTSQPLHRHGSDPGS

Row | SMILES | pIC50 [1] | pIC50 [2] | pIC50 [3] | pIC50 [4] | IC50 [2]
1 | OC1CCNCC12CCN(C(c1ccc(F)cc1)c1ccc(F)cc1)C2 (centres unmarked) [Example 3, 2-[bis(4-fluorophenyl)methyl]-2,7-diazaspiro[4.5]decan-10-ol] | 5.60 | 7.15 | 5.35 | 4.89 | 
2 | CN1CCC(O)C2(CCN(C(c3ccc(F)cc3)c3ccc(F)cc3)C2)C1 (centres unmarked) [Example 4, 2-[bis(4-fluorophenyl)methyl]-7-methyl-2,7-diazaspiro[4.5]decan-10-ol] | 5.80 |  | 4.74 | 4.73 | 195 nM
3 | Fc1ccc(C(c2ccc(F)cc2)N2CCC3(CCNCC3)C2)cc1 [Example 27, 2-[bis(4-fluorophenyl)methyl]-2,8-diazaspiro[4.5]decane] | 5.60 |  | 5.77 | 5.46 | 148 nM
4 | Fc1ccc(C(c2ccc(F)cc2)N2CCC3(CNCCO3)C2)cc1 (centres unmarked) [Example 29, 2-[bis(4-fluorophenyl)methyl]-6-oxa-2,9-diazaspiro[4.5]decane] | 5.20 |  | 5.86 | 5.16 | 107 nM
5 | Fc1ccc(C(c2ccc(F)cc2)N2CCC3(CC2)CNCCO3)cc1 [Example 31, 9-[bis(4-fluorophenyl)methyl]-1-oxa-4,9-diazaspiro[5.5]undecane] | 5.50 | 7.33 | 5.69 | 5.58 | 
